{
  "source": "patent US7914821B2",
  "about": "“Pharmaceutical composition for prevention and/or treatment of bone loss” (KO DA Pharmaceuticals Co., Ltd., priority 2008, dated 2011)",
  "molecules": {"B1": {"name": "noggin: noggin, 1 μg/ml, suppressed the imperatorin or bergapten induced-ALP activity (protein, UniProt Q13253 28-232, looked up)", "Noggin": "QHYLHIRPAPSDNLPLVDLIEHPDPIFDPKEKDLNETLLRSLLGGHYDPGFMATSPPEDRPGGGGGAAGGAEDLAELDQLLRQRPSGAMPSEIKGLEFSEGLAQGKKQRLSKKLRRKLQMWLWSQTFCPVLYAWNDLGSRFWPRYVKVGSCFSKRSCSVPEGMVCKPSKSVHLTVLRWRCQRRGGQRCGWIPIQYPIISECKCSC"}},
  "assay_type_in_all_cases": "cell-based, rat",
  "key": {"EPK protein": {"test_system": "EPK protein", "test": "Effect of ERK inhibitor on induced phosphorylation of EPK protein", "conditions": "inhibitor for 30 minutes before imperatorin and bergapten; FIGS. 11A-11B", "method": "Bone cells was cultured in 6-well plate and treated with 10 μM of imperatorin and bergapten for 1, 3, 6, 12, and 24 hrs, respectively. After treatment, the culture medium was replaced with a lysis buffer containing 50 mM HEPES (PH 7.4), 150 mM NaCl, 4 mM EDTA, 10 mM Na4P2O7, 100 mM NaF, 2 mM Na3VO4, 1% (v/v) Triton X-100, 0.25% (w/v) sodium deoxycholate, 50 mM 4-(2-aminoethyl)benzene sulfonylfluoride, 50 μg/ml leupeptin, and 20 μg/ml aprotinin, and then centrifuged at 13000 rpm for 15 minutes to obtain the protein pellets. 30 μg of proteins were dissolved in 5× Laemmli buffer, boiled at 95° C. for 5 minutes, and then subjected to SDS-PAGE gel (8%) electrophoresis. Proteins on the gel were then transferred to a PVDF membrane. The PVDF membrane was blocked in 4% BSA solution for 1 hour at room temperature. The blocked membrane was then incubated in PBST buffer (0.1% Tween-20) containing p-SMAD, p-ERK, or p38 primary antibody. Following incubation with primary antibody, the membrane was washed three times with PBST, and then incubated for 1 hr at room temperature with the secondary antibody, an anti-mouse or anti-goat IgG labeled with horseradish peroxidase. Following incubation with the secondary antibody, the membrane was washed three times with PBST, and detected by an […] chemiluminescence using an ECL blotting substrate according to the manufacturer's instructions. […]"}, "Bone cells [1]": {"test_system": "Bone cells", "test": "Effect of p38 and ERK inhibitors on ALP activity in bone cells", "conditions": "10 μM inhibitor with 10 μM imperatorin or bergapten, 48 hrs; FIG. 11C", "method": "(§1) Rat primary osteoblast was isolated from the parietal bone of gestation day 18 embryos of Sprague-Dawley rats. After being slaughtered, the embryo rats were obtained from the uteruses of the rats, and calvarium was isolated from the embryo rats. Parietal bone was cut from the calvarium and digested by 0.1% collagenase for 20 minutes to release the bone cells from the bone tissue. The digestion step was repeated five times. The collected bone cells were cultured in α-MEM containing 1% penicillin-streptomycin and 10% FBS in a humidified atmosphere of 5 percent carbon dioxide. When cells were attached and confluence, they were sub-cultured, which was called “passage 2 (P2)”. The passage was for analogizing. 2 to 5 passage cells were used for the experiments.\nBone cells were cultured and treated with (1) 10 μM SB203580, (2) 10 μM PD98059, (3) 10 μM imperatori, (4) 10 μM bergapten, (5) 10 μM imperatorin+SB203580, (6) 10 μM bergapten+SB203580, (7) 10 μM imperatorin+PD98059 ? (8) 10 μM bergapten+PD98059 for 48 hrs. After treatment, the bone cells were lysed in 0.2% […] solution and centrifuged at 1500×g for 5 minutes. The supernatant was analyzed by an ALP kit such as described above to obtain the ALP activity. The ALP activity in the control group which was treated with 0.1% DMSO was defined as 100%. […]"}, "p38": {"test_system": "p38", "test": "Effect of p38 inhibitor on induced phosphorylation of p38", "conditions": "inhibitor for 30 minutes before imperatorin and bergapten; FIGS. 11A-11B", "description": "Bone cells was cultured in 6-well plate and treated with 10 μM of imperatorin and bergapten for 1, 3, 6, 12, and 24 hrs, respectively. […] 30 μg of proteins were dissolved in 5× Laemmli buffer, boiled at 95° C. for 5 minutes, and then subjected to SDS-PAGE gel (8%) electrophoresis. Proteins on the gel were then transferred to a PVDF membrane. The PVDF membrane was blocked in 4% BSA solution for 1 hour at room temperature. The blocked membrane was then incubated in PBST buffer (0.1% Tween-20) containing p-SMAD, p-ERK, or p38 primary antibody. Following incubation with primary antibody, the membrane was washed three times with PBST, and then incubated for 1 hr at room temperature with the secondary antibody, an anti-mouse or anti-goat IgG labeled with horseradish peroxidase. Following incubation with the secondary antibody, the membrane was washed three times with PBST, and detected by an enzyme-linked chemiluminescence using an ECL blotting substrate according to the manufacturer's instructions.\nIn the control group, a non-phosphorylation p38 and non-phosphorylation EPK proteins were subjected to SDS-PAGE gel electrophoresis."}, "Bone cells [2]": {"test_system": "Bone cells", "test": "ALP activity with imperatorin, bergapten and noggin", "conditions": "1 μg/ml noggin with 10 μM imperatorin or 10 μM bergapten, 48 hrs; FIG. 9C", "method": "as §1\nBone cells were treated with (1) 10 μM imperatorin, (2) 10 μM bergapten, (3) 10 μM imperatorin+noggin, (4) 10 μM bergapten+noggin, and (5) 1 μg/ml noggin for 48 his, respectively. After treatment, the bone cells were lysed in 0.2% […] solution, and then centrifuged at 1500×g for 5 minutes to obtain a supernatant. The supernatant was analyzed by ALP kit as described above to obtain the ALP activity. The ALP activity in the control group which was treated with 0.1% DMSO was defined as 100%. Referring to FIG. 9C, noggin suppressed the imperatorin or bergapten induced-ALP activity."}},
  "data": [
    {"molecule": "COc1cccc(-c2cc(=O)c3ccccc3o2)c1N", "note": "[PD98059]", "values": [
      {"measurement": "imperatorin and bergapten induced-phosphorylation (EPK protein)", "setting": "EPK protein", "value": "suppressed"},
      {"measurement": "imperatorin and bergapten induced-ALP activity", "setting": "Bone cells [1]", "value": "suppressed"}
    ]},
    {"molecule": "C[S+]([O-])c1ccc(-c2nc(-c3ccncc3)c(-c3ccc(F)cc3)[nH]2)cc1", "note": "(centres unmarked) [SB203580]", "values": [
      {"measurement": "imperatorin and bergapten induced-phosphorylation (p38)", "setting": "p38", "value": "suppressed"},
      {"measurement": "imperatorin and bergapten induced-ALP activity", "setting": "Bone cells [1]", "value": "suppressed"}
    ]},
    {"molecule": "B1", "values": [
      {"measurement": "imperatorin or bergapten induced-ALP activity", "setting": "Bone cells [2]", "value": "suppressed"}
    ]}
  ]
}
